Assay results published in ChEMBL document CHEMBL5725542, “Plasminogen activator inhibitor-1 inhibitors and methods of use thereof” (2017).

Legend:
[1] = Fluorometric PAI-1/uPA IC50 Plate Assay: To determine the efficacy of various synthesized compounds as PAI-1 inhibitors, a fluorometric plate assay was carried out to measure the half maximal inhibitory concentration (IC50) of these compounds on recombinant active human PAI-1 in vitro. An IC50 is a measure of the effectiveness of a compound in inhibiting biological or biochemical function. Stated another way, IC50 represents the concentration of a drug that is required for 50% inhibition in vitro. The IC50 of various compounds was measured using a fluorometric plate assay. PAI-1 inhibitor compounds were dissolved in DMSO to a final concentration of (10-50 mM), depending upon solubility. Compounds were then diluted in physiologic buffer (40 mM HEPES, 100 mM NaCl, 0.05% Tween-20, pH7.4) containing 10% DMSO and a dilution series (from 0 to 1000 uM depending on solubility) was prepared. 80 μL of compound was added per well to a 96-well black, opaque microplate in duplicate. 10 μL of 20 nM Recombinant active human PAI-1 (Molecular Innovations) in physiologic buffer (40 mM HEPES, 100 mM NaCl, 0.05% Tween-20, 10% DMSO, pH 7.4), or […] physiologic buffer with 10% human plasma, was added and the mixture was agitated for 15 minutes at room temperature. 10 μL of 25 nM uPA (Rheotromb®) was added to each reaction well and the plate was agitated for an additional 30 minutes at room temperature. Tripeptide aminomethylcoumarin Gly-Gly-Arg-AMC (Calbiochem) fluorogenic substrate (100 μL of 100 μM) was then added and residual uPA activity was determined based upon cleavage of this substrate. The rate of AMC release by uPA (fluorescence) was measured at an excitation wavelength of 370 nm and an emission wavelength of 440 nm. Controls included PAI-1 and uPA in the absence of compound and uPA alone. Percent PAI-1 inhibition was calculated using the following formula: [(uPA alone-uPA/PAI-1+ compound)/(uPA alone-PAI-1/uPA)]*100%. The IC50 was calculated using Graphit (IC50 0-100%).
[2] = (§1) Fluorometric PAI-1/uPA IC50 Plate Assay (10% plasma buffer): To determine the efficacy of various synthesized compounds as PAI-1 inhibitors, a fluorometric plate assay was carried out to measure the half maximal inhibitory concentration (IC50) of these compounds on recombinant active human PAI-1 in vitro. An IC50 is a measure of the effectiveness of a compound in inhibiting biological or biochemical function. Stated another way, IC50 represents the concentration of a drug that is required for 50% inhibition in vitro. The IC50 of various compounds was measured using a fluorometric plate assay. PAI-1 inhibitor compounds were dissolved in DMSO to a final concentration of (10-50 mM), depending upon solubility. Compounds were then diluted in physiologic buffer (40 mM HEPES, 100 mM NaCl, 0.05% Tween-20, pH7.4) containing 10% DMSO and a dilution series (from 0 to 1000 uM depending on solubility) was prepared. 80 μL of compound was added per well to a 96-well black, opaque microplate in duplicate. 10 μL of 20 nM Recombinant active human PAI-1 (Molecular Innovations) in physiologic buffer (40 mM HEPES, 100 mM NaCl, 0.05% Tween-20, 10% DMSO, pH 7.4), or […] physiologic buffer with 10% human plasma, was added and the mixture was agitated for 15 minutes at room temperature. […]
[3] = as §1, with “(1.5% BSA” for “(10% plasma”

IC50 [1] [mM]	IC50 [2] [µM]	IC50 [3] [µM]	Structure (SMILES)
4.31			COc1cc(CO)cc(CNC(=O)C(=O)NN)c1
2.28			COc1cc(CO)ccc1CNC(=O)C(=O)NN
2.56			NNC(=O)C(=O)NCCc1ccc(CO)c(CO)c1
5.47	851	892	[C-]#[N+]c1ccc(CNC(=O)C(=O)NN)cc1
